The source of these data is patent publication US20060248793A1, “Method for making fungi compatible artificial snow” (priority 2005, published 2006).

In data set [1] the test system is Rhodotorula pilimanae. In words: Effect of pH on the antifungal activity of Snomax suspensions (FIG. 4). Particulars: R. pilimanae lawn, 28° C., 36 hours. Type of data set: cell-based. Here is the method: SnoMax was mixed and suspended with water for 1 hour at room temperature, the pHs were adjusted to 6, 8, or 10 by titrating with dilute solutions of NaOH and HCl, and the suspensions incubated at the final pHs for 1 hour at room temperature. The suspensions were then freeze dried. The freeze dried powders were extracted with acidified acetone, centrifuged, and the supernatant fractions recovered. Acetone was evaporated off at 45° C. and the residues serial diluted (2 fold) in water. Ten microliter aliquots of 2^−1 (a), 2^−2 (b), and 2^−3 (c) dilutions were deposited on a freshly prepared lawn of Rhodotorula pilimanae onto potato-dextrose-casamino acids (PDA-CA) agar medium prepared in Petri dishes. A 10 microliter aliquot of pure syringomycin E (1 mg per ml) was also applied (d). The Petri dishes were incubated at 28° C. for 36 hours. Result: pH 8 and 10 treatments eliminated the antifungal activities of snomax suspension and of syringomycin E, the latter serving as positive control.

For data set [2], the system named is Rhodotorula pilimanae. Put plainly: Fungal inhibition, spot test on lawn (Table 1, FIG. 1-3). Type of data set: cell-based. Particulars: HPLC peak material purified from P. syringae 31R cultures. Here is the method:
Ten μL quantities of undiluted filtrate (1) and multiple aliquots of 2-fold dilutions of the filtrate (2-9) were applied to potato dextrose agar plates with freshly streaked R. pilimanae. The plate was incubated for 1 day at 28° C. The cleared spots show fungicidal growth inhibition.
Ten μL quantities of undiluted (1) and 2^−1 (2), 2^−2 (3) and 2^−3 (4) dilutions of the extracts were applied to potato dextrose agar plates with freshly streaked R. pilimanae. The plate was incubated for 1 day at 28° C. The cleared spots show fungicidal growth inhibition.
SnoMax® (1 g) was suspended in 5 ml H2O. One ml was mixed with 1 ml of acidified acetone, centrifuged, and the supernatant was recovered. An aliquot (200 μL) of the extract was evaporated to near dryness at 40° C. H2O (100 μL) was added and the mixture evenly suspended. Ten μL each of the SnoMax® suspension, extract, and H2O control were spotted onto a fresh lawn of R. pilimanae on PDA medium and incubated at 28° C. for 24 h.
SnoMax® was obtained from the snow making operation of a local Utah ski resort. One gram was suspended in water and an aliquot was extracted with acidified acetone. The extract was dried, suspended in water, and the solutions were tested for inhibitory activity against R. pilimanae grown as a lawn on potato dextrose agar medium (1) (FIG. 3). This assay is determines syringomycin production.

The test system of data set [3] is Saccharomyces cerevisiae. More on the design: key: +=fungicidal. The settings on record: references 3, 5, 8; cited from earlier work.
The test system of data set [4] is Geotricum citri-aurantii. More on the design: key: +=fungicidal. Particulars: cited from earlier work.
The subject of data set [5] is Thielaviopsis basicola. The arrangement: key: +=fungicidal. Particulars: cited from earlier work.
The subject of data set [6] is Mucor sp. More on the design: key: +=fungicidal. Particulars: cited from earlier work.
Data set [7] deals with Trichoderma atroviridae. The arrangement: key: +=fungicidal. Particulars: cited from earlier work.
Data set [8] concerns Fusarium moliniforme. The arrangement: key: +=fungicidal. Particulars: cited from earlier work.
Data set [9] concerns Suillus tomentosus. Put plainly: ECM fungal inhibition (Table 1). Type of data set: cell-based. The arrangement: key: +=fungicidal. Particulars: unpublished results. The source says: (§1) In addition to laboratory studies, ECM fungi that exist in high elevation sites of the Rocky Mountains and that are also culturable in artificial media are studied. These include: Amanita muscaria, Boletus edulis, Hebeloma crustuliniform, Laccaria bicolor, Laccaria laccata, Lactarius deliciosus, Lactarius rufus, Suillus brevipes, Suillus tomentosus, Rhizopogon occidentalis, and Rhizopogon subcaerulescens. Cultures of these fungi are available from the laboratory of Kropp, Utah State University or are obtained from the American Type Culture Collection. Syringomycin-containing extracts from P. syringae 31R and SnoMax® are prepared by methods used for extraction of cyclic lipodepsipeptides (FIG. 2) (1). Briefly, equal volumes of acidified acetone are added to bacterial cultures and SnoMax® suspensions. The mixtures are centrifuged and evaporated to give the aqueous extracts for testing. SnoMax® itself is suspended in water (0.1 g per ml), and the suspension is tested for fungicidal activities.
(§2) For testing, the linear growth of the various ECM fungi in the presence and absence (controls) of extracts and SnoMax® suspensions are analyzed. Sterile agar strips (5 cm×1.5 cm, cut from fresh agar plates and placed in sterile plastic petri dishes) are inoculated at one end with a 5 mm diameter inoculum plug of the ECM fungus to be tested. Paper disks (1 cm diameter) are soaked in filter-sterilized extracts and SnoMax® suspensions and placed at the opposite end of the agar strip. Control strips with disks soaked in sterile distilled water are also be prepared. The concentrations of the extracts to be used are based on the independent determination of the minimal inhibitory concentrations needed to inhibit the in vitro growth of the yeast R. pilimanae. Two levels of 2-fold dilutions above and below this concentration are used. The plates are sealed with Parafilm and incubated at room temperature for several weeks. The extent of linear growth is measured and compared. The ages of the inoculum cultures are standardized and all inoculum disks are taken from the actively growing colony margin. […]

Data set [10] has as its system Suillus brevipes. Put plainly: ECM fungal inhibition (Table 1). Type of data set: cell-based. More on the design: key: +=fungicidal. Particulars: unpublished results.
From the text: as §1, §2

For data set [11], the system named is Laccaria bicolor. In words: ECM fungal inhibition (Table 1). Type of data set: cell-based. The arrangement: key: +=fungicidal. Particulars: unpublished results.
From the text: as §1, §2

In data set [12] the test system is Ustilago maydis. The arrangement: key: +=fungicidal. The settings on record: cited from earlier work.
The subject of data set [13] is Aureobasidium pullulans. The arrangement: key: +=fungicidal. The settings on record: cited from earlier work.
For data set [14], the system named is Fusarium solani. The arrangement: key: +=fungicidal. Particulars: cited from earlier work.
The test system of data set [15] is Aspergillus flavus. More on the design: key: +=fungicidal. The settings on record: reference 1; cited from earlier work.
Data set [16] relates to Penicillium digitatum. The arrangement: key: +=fungicidal. The settings on record: cited from earlier work.
Data set [17] deals with Penicillium raistrikii. More on the design: key: +=fungicidal. The settings on record: cited from earlier work.
For data set [18], the system named is Verticillium dahliae. More on the design: key: +=fungicidal. Particulars: cited from earlier work.
For data set [19], the system named is Phytophthora infestans. More on the design: key: +=fungicidal. The settings on record: cited from earlier work.
The test system of data set [20] is Cladosporium herbarum. More on the design: key: +=fungicidal. Particulars: cited from earlier work.
Data set [21] concerns Rhizopus sp. More on the design: key: +=fungicidal. Particulars: cited from earlier work.
Data set [22] concerns Candida krusei. The arrangement: key: +=fungicidal. The settings on record: cited from earlier work.
Data set [23] has as its system Candida tropicalis. The arrangement: key: +=fungicidal. The settings on record: cited from earlier work.
Data set [24] concerns Aspergillus niger. The arrangement: key: +=fungicidal. Particulars: cited from earlier work.
Data set [25] concerns Fusarium oxysporum. The arrangement: key: +=fungicidal. Particulars: cited from earlier work.
Data set [26] concerns Cryptococcus neoformans. More on the design: key: +=fungicidal. Particulars: cited from earlier work.
For data set [27], the system named is Botrytis cinera. The arrangement: key: +=fungicidal. Particulars: cited from earlier work.
The test system of data set [28] is Penicillium radulatum. More on the design: key: +=fungicidal. The settings on record: cited from earlier work.
Data set [29] has as its system Microsporium sp. The arrangement: key: +=fungicidal. The settings on record: cited from earlier work.
Data set [30] has as its system Geotricum candidum. More on the design: key: +=fungicidal. Particulars: references 2, 6, 7, 8; cited from earlier work.
The test system of data set [31] is Rhizoctonia solani. More on the design: key: +=fungicidal. Particulars: cited from earlier work.
The subject of data set [32] is Candida kefyr. The arrangement: key: +=fungicidal. The settings on record: cited from earlier work.
The subject of data set [33] is Trichophyton sp. More on the design: key: +=fungicidal. Particulars: cited from earlier work.
Data set [34] has as its system Candida albicans. More on the design: key: +=fungicidal. The settings on record: references 3, 8; cited from earlier work.
Data set [35] concerns Alternaria alternate. The arrangement: key: +=fungicidal. The settings on record: cited from earlier work.
Data set [36] has as its system Candida rugosa. More on the design: key: +=fungicidal. The settings on record: cited from earlier work.
Data set [37] deals with Penicillium expansum. The arrangement: key: +=fungicidal. Particulars: cited from earlier work.
In data set [38] the test system is Rhodotorula pilimanae. The arrangement: key: +=fungicidal. The settings on record: references 4, 5; cited from earlier work.
The subject of data set [39] is Candida parapsilosis. The arrangement: key: +=fungicidal. Particulars: cited from earlier work.
The subject of data set [40] is Ceratocystis fimbriata. More on the design: key: +=fungicidal. The settings on record: cited from earlier work.
Data set [41] relates to Aspergillus fumigatus. More on the design: key: +=fungicidal. Particulars: cited from earlier work.

Consider syringomycin E, for which the “antifungal activity after pH treatment” value in [1] (pH 8, 1 hour at room temperature) is listed as “eliminated”; in data set [1] (pH 10, 1 hour at room temperature), “eliminated”. Besides, in data set [2], the “growth inhibitory activity against R. pilimanae, other yeasts and filamentous fungi” value was “growth inhibitory activity”.

For the substance syringomycin [SR], the Fungal species inhibited result in data set [3], in data set [4], in [5], in [6], in data set [7] and in data set [8] was “+” each time. In addition, the Fungal species inhibited result in data set [9], in data set [10], in [11], in data set [12], in [13] and in data set [14] was “+” each time. Moreover, the Fungal species inhibited entry in [15], in data set [16], in data set [17], in data set [18], in [19] and in [20] was “+” throughout. For the same substance, the Fungal species inhibited entry in [21], in data set [22], in data set [23], in data set [24], in data set [25] and in data set [26] was “+” throughout. The Fungal species inhibited entry in data set [27], in [28], in data set [29], in [30], in [31] and in data set [32] was “+” throughout. Further, the Fungal species inhibited result in data set [33] was “+”; in [34], “+”; in data set [35] it was “+”; in data set [36], “+”; in data set [37], “+”; in [38], “^c+”. The Fungal species inhibited entry in data set [39], in [40] and in [41] was “+” throughout.
